Experimental data from patent US11040043B2, “Transdermal pharmaceutical compositions comprising active agents” (priority 2009, dated 2021).
Read-outs that look alike come from different tables or passages of the source.

Key:
[1] = Solubility of ethyl oleate as a function of ethanol concentration; type: physicochemical; settings: for Amount of Ethyl Oleate solubilised in g/100 g: room temperature, 0.24% estradiol, 5% propylene glycol, 2% oleic acid, Qsf water
Text: In particular, it appears that the more ester is present in the composition, the better the storage depot effect is. […] An upper limit is imposed, however, by the solubility of the fatty acid ester in the composition.

clinical = assay: clinical; parameters: species or system human; settings: in vivo
Text: A multiple-dose, open-label, dose-escalation study was designed in which 12 healthy male subjects were scheduled to receive 1 of 2 treatments once daily for 3 days with an 11-day washout period between doses.
The objective of this Phase 1 study was to assess the safety and pharmacokinetic (PK) profile of multiple dose administration of 0.25 g and 1.00 g of a 0.07% transdermal estradiol gel in healthy male volunteers. The transdermal gel used had the following formulation: […]
Twelve (12) healthy subjects were enrolled and participated in two open-label treatment periods. Subjects who successfully completed the screening process checked into the research center on Day 1, approximately 1 to 2 hours prior to the first blood draw of each treatment period. For Treatment Period A, 0.25 g of the 0.07% gel was to be administered once daily for three days. During Treatment Period B, 1.0 g of the 0.07% gel was to be administered once daily for three days. Dosing days were to be separated by a washout period of at least 11 days.
Diagnosis and Main Criteria for Inclusion: Healthy adult male volunteers, 18-45 years of age, with body mass index (BMI) between 18 and 30 kg/m2, inclusive, and minimum weight of 50 kg (110 pounds).

SMILES: CCCCCCCC/C=C\CCCCCCCC(=O)OCC [Ethyl Oleate, ethyl oleate]
- Amount of Ethyl Oleate solubilised in g/100 g ([1]; EtOH (96% v/v) 64%): 0.65 g/100 g
- Amount of Ethyl Oleate solubilised in g/100 g ([1]; EtOH (96% v/v) 66%): 0.91 g/100 g
- Amount of Ethyl Oleate solubilised in g/100 g ([1]; EtOH (96% v/v) 68%): 1.28 g/100 g
- Amount of Ethyl Oleate solubilised in g/100 g ([1]; EtOH (96% v/v) 70%): 1.60 g/100 g
- Amount of Ethyl Oleate solubilised in g/100 g ([1]; EtOH (96% v/v) 72%): 2.19 g/100 g
- Amount of Ethyl Oleate solubilised in g/100 g ([1]; EtOH (96% v/v) 73%): 2.40 g/100 g
- maximum ethyl oleate that can be dissolved ([1]; formulation comprising 72% ethanol): ≤ 2.2%

SMILES: C[C@]12CC[C@@H]3c4ccc(O)cc4CC[C@H]3[C@@H]1CC[C@@H]2O [Estradiol, estradiol]
- dose proportionality of exposure (clinical): less than proportional increase in exposure
- AUC0-24 (clinical; male, human): 0.7522 ng·h/mL
- AUC0-120 (clinical; male, human): 2.933 ng·h/mL
- AUC24-48 (clinical; male, human): 0.661 ng·h/mL
- AUC48-72 (clinical; male, human): 0.6581 ng·h/mL
- AUC(0-t) (clinical; male, human): 4.436 ng·h/mL
- Cmax-overall (clinical; male, human): 0.0646 ng/mL
- increase in overall systemic exposure based on AUC0-120 (clinical; male, human): 1.26 fold
- increase in peak systemic exposure based on Cmax0-120 (clinical; male, human): 1.95 fold
- increase of estradiol concentrations above baseline (clinical; male, human): 2- to 3 fold
- ratio (0.25 g: 1.00 g) for estradiol AUC0-120 (clinical; male, human): 80.01%
- ratio (0.25 g: 1.00 g) for estradiol Cmax0-120 (clinical; male, human): 47.89%
- Tmax (clinical; male, human, 0.25 g of 0.07% estradiol gel (Example 10) once daily for 3 days, healthy males, Mean, N 12, read-out: Tmax-overall): 54.8 h
- Tmax (clinical; male, human, 0.25 g, first dosing interval, read-out: Estradiol Tmax after administration of the gel): ~13 h
- Tmax (clinical; male, human, 0.25 g, third dosing interval, read-out: Estradiol Tmax after administration of the gel): ~3 h
- Tmax (clinical; male, human, 1.00 g of 0.07% estradiol gel (Example 10) once daily for 3 days, healthy males, Mean, n 11, read-out: Tmax-overall): 29.8 h
- AUC(0-t) (clinical; male, human, AUC0-24 (hr * pg/mL)): 0.477 ng·h/mL
- AUC(0-t) (clinical; male, human, AUC0-120 (hr * pg/mL)): 2.33 ng·h/mL
- AUC(0-t) (clinical; male, human, AUC0-t (hr * pg/mL)): 3.78 ng·h/mL
- AUC (clinical; male, human, AUC24-48 (hr * pg/mL)): 0.503 ng·h/mL
- AUC (clinical; male, human, AUC48-72 (hr * pg/mL)): 0.477 ng·h/mL
- Cmax (clinical; male, human, Cmax-overall (pg/mL)): 0.0331 ng/mL
